System: hER
Experiment: HPTLC-pYES (planar yeast estrogen screen) on RP-18 W plate, lac-Z reporter / MUG fluorescence
Assay type: cell-based, human
Conditions: for E2Eq: E2 equivalent calculated as EC50E2/EC50sample, recombinant Saccharomyces cerevisiae BJ3505, dose-response curves after separation on RP 18W plate, n=4; for estrogenic/bioactive effect in pYES: standard solutions or sample zone detected with the pYES, qualitative
Method: HPTLC. Standard and sample solutions (0.1-10 µL) were applied on the HPTLC plate RP-18 W (Merck Millipore, Darmstadt, Germany) as 6.5 mm bands by the Automatic TLC Sampler 4 (ATS4; CAMAG, Muttenz, Switzerland). […] The standard mixture was applied by overspaying of the individual standard solutions, which allowed flexibility for individual mixtures and volumes. For determination of the recovery rate, 0.1 µL P1 sample was sprayed on the plate and oversprayed with 0.1 µL - 2 µL CAPE standard solution. After sample application, the start zones were dried for 1 min using a hair dryer. Development was performed in a Twin Trough Chamber (20 x 10 cm, CAMAG), using n-hexane - toluene - ethyl acetate 4:1.5:1, v/v/v (all from ROTH) up to a migration distance of 70 mm. After development, the plate was dried with cold air using a hair dryer for 2 min to remove the residual solvent. The developed plate was documented at 366 nm illumination using the TLC Visualizer (CAMAG).
Cell cultivation. Saccharomyces cerevisiae BJ3505 (protease-deficient, MATα, PEP4: HIS3, Prb1Δ1.6R, HIS3Δ200, lys2-208, trp1Δ101, ura3-52) generated by McDonnell et al. (61, 62) was used for the pYES-assay. All experimental studies were based on stock of the recombinant estrogen sensitive yeast cells stored in 30% glycerol supplemented growth media, consisting of D-glucose 1 g/L, yeast nitrogen base 6.8 g/L, both Sigma Aldrich, Steinheim, Germany, and amino acid components according to Routledge and Sumpter (50), at -80 °C. From the stock, cells were streaked on an agar plate with growth medium (30°C, two days) to supply colonies for further suspension cultivation. Shaking suspension cultures were inoculated in 20 mL growth medium and cultured at 30 °C at 100 rpm for 18 h. Prior to the assay, cell concentration and viability determination was performed using a hemocytometer and trypan blue (0.4% Sigma Aldrich) staining. For the pYES, the cell number was adjusted to 2.5 x 10^8 cells in 50 mL with 150 µM CuSO4 supplemented growth medium. To remain constant cell quality within the exponential growth phase for further studies, cells were split daily by 1:10 dilution.
HPTLC-pYES. As the HPTLC was developed and cells were prepared, the pYES assay was started. The plate was automatically immersed into the cell suspension using the TLC Immersion Device (CAMAG) with a speed of 3.5 cm/s and an immersion time of 5 s. Thus, the cell suspension was homogeneously transferred onto the plate surface. The wettened plate was incubated in a horizontal position in a plastic box under almost 100% humidified air at 30 °C for 3 h. Thereafter, the plate was dried with cold air using a hair dryer for 2 min. For determination of the resulting ß-galactosidase, the plate was treated with the substrate 4-methylumbelliferyl-ß-D-galactopyranoside (MUG, Roth). ß-galactosidase acts on the substrate MUG to produce 4-methylumbelliferone (MU), detected as blue fluorescence at pH>7. MUG was dissolved in DMSO (20 mg/mL, Roth) and added to the reaction buffer (citric acid 6 g/L, disodium hydrogen phosphate 10 g/L, pH 12, Merck) to a final concentration of 0.5 mg/mL. The dried plate was immersed in the substrate solution according to the previous speed and immersion time. A second incubation period of 60 min at 37°C followed. The substrate reaction was terminated by immersion of the plate into a solution of glycine - NaOH (0.1 M, Roth), pH°12. […] Fluorescence measurement at 366/>400 nm was performed with the mercury lamp using the TLC Scanner 3 (CAMAG). Images were taken at 366 nm illumination using the Reprostar 3 documentation system (CAMAG).
The half maximal effective concentration (EC50) was calculated for comparison of the receptor affinities.

Row | Structure (SMILES) | E2Eq | estrogenic/bioactive effect in pYES
1 | CC(C)(c1ccc(O)cc1)c1ccc(O)cc1 [BPA, bisphenol A] | 3.3x10^-4 | 
2 | O=C(/C=C/c1ccc(O)c(O)c1)OCCc1ccccc1 [CAPE, Caffeic acid phenethyl ester] |  | bioactive EDC zone
3 | CCCCCCCCCc1ccc(O)cc1 [NP, 4-n-Nonylphenol] | 2.3x10^-4 | 
4 | O=c1cc(-c2ccc(O)c(O)c2)oc2cc(O)cc(O)c12 [luteolin] |  | showed an estrogenic/bioactive effect
5 | O=c1c(O)c(-c2ccc(O)c(O)c2)oc2cc(O)cc(O)c12 [quercetin] |  | showed an estrogenic/bioactive effect
6 | C#C[C@]1(O)CC[C@H]2[C@@H]3CCc4cc(O)ccc4[C@H]3CC[C@@]21C [EE2, 17α-ethinylestradiol] | 0.3 | 

— patent EP2919004A1, “Bioassays on modified TLC/HPTLC plates” (Merck Patent GmbH, priority 2014, dated 2015)
